Results taken from patent US10160762B2, “6-alkyl dihydropyrazolopyrimidinone compounds as PDE2 inhibitors” (Merck Sharp & Dohme Corp., priority 2015, dated 2018).

What follows are compounds tested against T1, human PDE2A1 (Homo sapiens, UniProt O00408) (assay: IMAP FP PDE assay, human PDE2A1). Details: Lab B; read-out: Human PDE2 Ki (nM) Lab B.
T1 construct: GST; purchased BPS Bioscience (San Diego, Calif.) 60020; host or cells: insect cells
Assay type: biochemical
Experimental: Selectivity for PDE2, as compared to other PDE families, was assessed using the IMAP® technology. Human PDE10A2 enzyme was prepared from cytosolic fractions of transiently transfected HEK cells. All other PDE's were GST Tag human enzyme expressed in insect cells and were obtained from BPS Bioscience (San Diego, Calif.): PDE1A (Cat#60010), human PDE2A1 (Cat#60020), PDE3A (Cat#60030), PDE4A1A (Cat#60040), PDE5A1 (Cat#60050), PDE6C (Cat#60060), PDE7A (Cat#60070), PDE8A1 (Cat#60080), PDE9A2 (Cat#60090), PDE11A4 (Cat#60110).
Assays for PDE 1 through 11 were performed in parallel at room temperature in 384-well microtiter plates with an incubation volume of 20.2 μL. Solutions of test compounds were prepared in DMSO and serially diluted with DMSO to yield 30 μL of each of ten solutions differing by 3-fold in concentration, at 32 serial dilutions per plate. […] A Labcyte POD 810 (Labcyte, Sunnyvale, Calif.) was used to dispense 200 nL from each well of the titration plate to make eleven copies of the assay plate for each titration, one copy for each PDE enzyme. A solution of each enzyme (dilution from aliquots, sufficient to produce 20% substrate conversion) and a separate solution of FAM-labeled cAMP or FAM-labeled cGMP from Molecular Devices (Sunnyvale, Calif., product # R7506 or cGMP#R7508), at a final concentration of 50 nM were made in the assay buffer (10 mM Tris HCl, pH 7.2, 10 mM MgCl2, 0.05% NaN3 0.01% Tween-20, and 1 mM DTT). Note that the substrate for PDE2 is 50 nM FAM cAMP containing 1000 nM of cGMP. The enzyme and the substrate were then added to the assay plates in two consecutive additions of 10 μL and then shaken to mix. The reaction was allowed to proceed at room temperature for 60 minutes. A binding solution was then made from the kit components, comprised of 80% Solution A, 20% Solution B and binding reagent at a volume of 1/600 the total binding solution. The enzymatic reaction was stopped by addition of 60 μL of the binding solution to each well of the assay plate. The plates were sealed and shaken for 10 seconds. The plates were incubated at room temperature for one hour, then the parallel and perpendicular fluorescence was measured using a Tecan Genios Pro plate reader (Tecan, Switzerland). The apparent inhibition constants for the compounds against all 11 PDE's was determined from the parallel and perpendicular fluorescent readings as described for PDE10 FP assay using the following apparent KM values for each enzyme and substrate combination: PDE1A (FAM cGMP) 70 nM, human PDE2A1 (FAM cAMP) 10,000 nM, PDE3A (FAM cAMP) 50 nM, PDE4A1A (FAM cAMP) 1500 nM, PDE5A1 (FAM cGMP) 400 nM, PDE6C (FAM cGMP) 700 nM, PDE7A (FAM cAMP) 150 nM, PDE8A1 (FAM cAMP) 50 nM, PDE9A2 (FAM cGMP) 60 nM, PDE10A2 (FAM cAMP) 150 nM, PDE11A4 (FAM cAMP) 1000 nM. The intrinsic PDE2 inhibitory activity of a compound which may be used in accordance with the present invention may be determined by these assays.

T1 sequence (O00408 1-920 isoform O00408-2): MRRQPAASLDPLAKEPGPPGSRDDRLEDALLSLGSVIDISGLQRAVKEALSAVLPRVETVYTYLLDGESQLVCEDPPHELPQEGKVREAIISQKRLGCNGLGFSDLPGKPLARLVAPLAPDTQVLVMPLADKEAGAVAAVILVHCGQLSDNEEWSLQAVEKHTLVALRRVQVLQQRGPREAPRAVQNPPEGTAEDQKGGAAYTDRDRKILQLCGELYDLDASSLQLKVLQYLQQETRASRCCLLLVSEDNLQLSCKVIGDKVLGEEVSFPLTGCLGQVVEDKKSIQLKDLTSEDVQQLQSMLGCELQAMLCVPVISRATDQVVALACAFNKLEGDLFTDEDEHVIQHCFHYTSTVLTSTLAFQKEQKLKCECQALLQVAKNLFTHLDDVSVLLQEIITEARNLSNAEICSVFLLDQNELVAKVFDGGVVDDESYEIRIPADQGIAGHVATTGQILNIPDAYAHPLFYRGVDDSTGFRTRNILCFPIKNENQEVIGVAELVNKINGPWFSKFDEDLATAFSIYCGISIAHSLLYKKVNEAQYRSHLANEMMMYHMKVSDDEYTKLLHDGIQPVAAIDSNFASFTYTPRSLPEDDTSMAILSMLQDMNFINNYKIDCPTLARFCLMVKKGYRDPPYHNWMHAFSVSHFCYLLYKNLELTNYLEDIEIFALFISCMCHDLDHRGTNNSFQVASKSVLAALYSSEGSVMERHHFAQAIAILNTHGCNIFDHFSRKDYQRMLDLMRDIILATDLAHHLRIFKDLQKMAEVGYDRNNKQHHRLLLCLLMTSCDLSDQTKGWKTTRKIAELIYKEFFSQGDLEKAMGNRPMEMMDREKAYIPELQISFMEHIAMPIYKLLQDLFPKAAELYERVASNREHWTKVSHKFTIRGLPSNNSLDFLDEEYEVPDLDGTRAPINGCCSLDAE

Row | Compound | Ki [nM]
1 | Cc1nc2c(c(C3CCCO3)nn2C(C)c2ccc(C(F)(F)F)cc2)c(=O)[nH]1 (single isomer, unassigned) [Example 73, (S, S)- or (S, R)- or (R, R)- or (R, S)-6-Methyl-3-(-tetrahydrofuran-2-yl)-1-(-l-(4-(trifluoromethyl)phenyl)ethyl)-1H-pyrazolo[3,4-d]pyrimidin-4(5H)-one] | 423
2 | Cc1nc2c(c(-c3ccco3)nn2C(C)c2ccc(C(F)(F)F)cc2)c(=O)[nH]1 (single isomer, unassigned) [Example 74, (R)- or (S)-3-(Furan-2-yl)-6-methyl-1-(1-(4-(trifluoromethyl)phenyl)ethyl)-1H-pyrazolo[3,4-d]pyrimidin-4(5H)-one] | 258
3 | Cc1nc2c(c(-c3ccco3)nn2C(C)c2ccc(C(F)(F)F)cc2)c(=O)[nH]1 (single isomer, unassigned) [Example 75, (S)- or (R)-3-(Furan-2-yl)-6-methyl-1-(1-(4-(trifluoromethyl)phenyl)ethyl)-1H-pyrazolo[3,4-d]pyrimidin-4(5H)-one] | 203
4 | Cc1nc2c(c(CO)nn2C(CC(F)(F)F)c2ccc(C(F)(F)F)cc2)c(=O)[nH]1 (single isomer, unassigned) [Example 96, (R)- or (S)-3-(Hydroxymethyl)-6-methyl-1-(3,3,3-trifluoro-1-(4-(trifluoromethyl)phenyl)propyl)-1H-pyrazolo[3,4-d]pyrimidin-4(5H)-one] | 16
5 | Cc1nc2c(c(CO)nn2C(C)c2ccc(C(F)(F)C(F)(F)F)cc2)c(=O)[nH]1 (single isomer, unassigned) [Example 99, (S)- or (R)-3-(Hydroxymethyl)-6-methyl-1-(1-(4-(perfluoroethyl)phenyl)ethyl)-1H-pyrazolo[3,4-d]pyrimidin-4(5H)-one] | 4.5
6 | COCC(c1ccc(C(F)(F)F)cc1)n1nc(CO)c2c(=O)[nH]c(C)nc21 (single isomer, unassigned) [Example 101, (S)- or (R)-3-(Hydroxymethyl)-1-(2-methoxy-1-(4-(trifluoromethyl)phenyl)ethyl)-6-methyl-1H-pyrazolo[3,4-d]pyrimidin-4(5H)-one] | 13
7 | Cc1nc2c(c(CO)nn2C2CCc3cc(C(F)(F)F)ccc32)c(=O)[nH]1 (single isomer, unassigned) [Example 103, (S)- or (R)-3-(Hydroxymethyl)-6-methyl-1-(5-(trifluoromethyl)-2,3-dihydro-1H-inden-1-yl)-1H-pyrazolo[3,4-d]pyrimidin-4(5H)-one] | 19
8 | Cc1nc2c(c(CO)nn2C(C)c2ccc(OC(F)(F)F)cc2F)c(=O)[nH]1 (single isomer, unassigned) [Example 104, (R)- or (S)-1-(1-(2-Fluoro-4-(trifluoromethoxy)phenyl)ethyl)-3-(hydroxymethyl)-6-methyl-1H-pyrazolo[3,4-d]pyrimidin-4(5H)-one] | 162
9 | Cc1nc2c(c(CO)nn2C(C)c2ccc(OC(F)(F)F)cc2F)c(=O)[nH]1 (single isomer, unassigned) [Example 105, (S)- or (R)-1-(1-(2-Fluoro-4-(trifluoromethoxy)phenyl)ethyl)-3-(hydroxymethyl)-6-methyl-1H-pyrazolo[3,4-d]pyrimidin-4(5H)-one] | 1.9
10 | Cc1nc2c(c(CO)nn2C(C)c2ccc(C(F)(F)F)cc2C)c(=O)[nH]1 (single isomer, unassigned) [Example 108, (R)- or (S)-3-(Hydroxymethyl)-6-methyl-1-(1-(2-methyl-4-(trifluoromethyl)phenyl)ethyl)-1H-pyrazolo[3,4-d]pyrimidin-4(5H)-one] | ~1280
11 | Cc1nc2c(c(CO)nn2C(C)c2ccc(C(F)F)cc2)c(=O)[nH]1 (single isomer, unassigned) [Example 110, (R)- or (S)-1-(1-(4-(Difluoromethyl)phenyl)ethyl)-3-(hydroxymethyl)-6-methyl-1H-pyrazolo[3,4-d]pyrimidin-4(5H)-one] | 1070
12 | Cc1nc2c(c(CO)nn2C(C)c2ccc(C(F)F)cc2)c(=O)[nH]1 (single isomer, unassigned) [Example 111, (S)- or (R)-1-(1-(4-(Difluoromethyl)phenyl)ethyl)-3-(hydroxymethyl)-6-methyl-1H-pyrazolo[3,4-d]pyrimidin-4(5H)-one] | 3.2
13 | Cc1nc2c(c(CO)nn2C(C)c2ccc(OC(F)F)c(F)c2)c(=O)[nH]1 (single isomer, unassigned) [Example 113, (S)- or (R)-1-(1-(4-(Difluoromethoxy)-3-fluorophenyl)ethyl)-3-(hydroxymethyl)-6-methyl-1H-pyrazolo[3,4-d]pyrimidin-4(5H)-one] | 3

More lines, now with the values ahead:

Row | Ki [nM] | Compound
14 | 624 | Cc1nc2c(c(CO)nn2C(C)c2ccc(C3(C(F)(F)F)CC3)cc2)c(=O)[nH]1 (single isomer, unassigned) [Example 80]
15 | 7.7 | Cc1nc2c(c(CO)nn2C(C)c2ccc(C3(C(F)(F)F)CC3)cc2)c(=O)[nH]1 (single isomer, unassigned) [Example 81]
16 | 467 | Cc1nc2c(c(CO)nn2C(CC(F)(F)F)c2ccc(C(F)(F)F)cc2)c(=O)[nH]1 (single isomer, unassigned) [Example 97, (S)- or (R)-3-(Hydroxymethyl)-6-methyl-1-(3,3,3-trifluoro-1-(4-(trifluoromethyl)phenyl)propyl)-1H-pyrazolo[3,4-d]pyrimidin-4(5H)-one]
17 | 591 | Cc1nc2c(c(CO)nn2C(C)c2ccc(C(F)(F)C(F)(F)F)cc2)c(=O)[nH]1 (single isomer, unassigned) [Example 98, (R)- or (S)-3-(Hydroxymethyl)-6-methyl-1-(1-(4-(perfluoroethyl)phenyl)ethyl)-1H-pyrazolo[3,4-d]pyrimidin-4(5H)-one]
18 | ~1670 | COCC(c1ccc(C(F)(F)F)cc1)n1nc(CO)c2c(=O)[nH]c(C)nc21 (single isomer, unassigned) [Example 100, (R)- or (S)-3-(Hydroxymethyl)-1-(2-methoxy-1-(4-(trifluoromethyl)phenyl)ethyl)-6-methyl-1H-pyrazolo[3,4-d]pyrimidin-4(5H)-one]
19 | > 2960 | Cc1nc2c(c(CO)nn2C2CCc3cc(C(F)(F)F)ccc32)c(=O)[nH]1 (single isomer, unassigned) [Example 102, (R)- or (S)-3-(Hydroxymethyl)-6-methyl-1-(5-(trifluoromethyl)-2,3-dihydro-1H-inden-1-yl)-1H-pyrazolo[3,4-d]pyrimidin-4(5H)-one]
20 | 633 | Cc1nc2c(c(CO)nn2C(C)c2ccc(C(F)(F)F)c(C)c2)c(=O)[nH]1 (single isomer, unassigned) [Example 106, (R)- or (S)-3-(Hydroxymethyl)-6-methyl-1-(1-(3-methyl-4-(trifluoromethyl)phenyl)ethyl)-1H-pyrazolo[3,4-d]pyrimidin-4(5H)-one]
21 | 4.5 | Cc1nc2c(c(CO)nn2C(C)c2ccc(C(F)(F)F)c(C)c2)c(=O)[nH]1 (single isomer, unassigned) [Example 107, (S)- or (R)-3-(Hydroxymethyl)-6-methyl-1-(1-(3-methyl-4-(trifluoromethyl)phenyl)ethyl)-1H-pyrazolo[3,4-d]pyrimidin-4(5H)-one]
22 | 1.9 | Cc1nc2c(c(CO)nn2C(C)c2ccc(C(F)(F)F)cc2C)c(=O)[nH]1 (single isomer, unassigned) [Example 109, (S)- or (R)-3-(Hydroxymethyl)-6-methyl-1-(1-(2-methyl-4-(trifluoromethyl)phenyl)ethyl)-1H-pyrazolo[3,4-d]pyrimidin-4(5H)-one]
23 | 88 | Cc1nc2c(c(CO)nn2C(C)c2ccc(OC(F)F)c(F)c2)c(=O)[nH]1 (single isomer, unassigned) [Example 112, (R)- or (S)-1-(1-(4-(Difluoromethoxy)-3-fluorophenyl)ethyl)-3-(hydroxymethyl)-6-methyl-1H-pyrazolo[3,4-d]pyrimidin-4(5H)-one]
